The source of these data is article PMC5321741, “Arylmethylamino steroids as antiparasitic agents” (Nature Communications, 2017).

In series [1] the test system is P. berghei asexual stages. Description: ex vivo drug assay (luciferase), asexual stages. It counts as cell-based. Conditions: Plasmodium berghei, 24 h, read-out: IC50 against P. berghei ex vivo. As for the experimental part: Plates frozen at −80 °C were thawed at 37 °C. The cells were lysed at room temperature in 10 μl 1x luciferin lysis buffer (Luciferase Cell Culture Lysis 5 × reagent, Promega), and 100 μl luciferase assay substrate was added to each well (Luciferase Assay System, Promega). Luciferase activity was measured on a luminescence plate reader (Mithras LB940 luminometer, Berthold Technologies). The mean of the luciferase activity was calculated for each technical triplicate and normalized as follows: (Lucx−LucRBC)/(Lucsolvent−LucRBC) with Lucx and Lucsolvent=mean luciferase activity for parasites incubated with compound x and with solvent (DMSO for 1o and PBS for MB), respectively, and LucRBC=mean luciferase activity of non-infected red blood cells (background). IC50 values were calculated using Prism (GraphPad, log(inhibitor) versus normalized response—variable slope) in three independent experiments for the P. falciparum gametocyte assay and five for the P. berghei ex vivo drug assay.
The animal experiments described in this part were performed at the Institut de Biologie Moléculaire et Cellulaire (Strasbourg, France), using facilities and protocols adhering to national regulations of laboratory animal welfare in France. […] Parasitaemia was monitored via FACS analysis (FACSCalibur, BD Bioscience). […]

The test system of series [2] is P. falciparum gametocytes (pfs16-GFP-Luc, NF54 background). Description: gametocyte luciferase assay. It counts as cell-based, Plasmodium falciparum. As for the experimental part:
Sensitivity of P falciparum gametocytes to lead compound 1o was determined by measuring the activity of luciferase in luciferase-expressing gametocytes after an exposure of 72 h to different concentrations of compound 1o.
The pfs16-GFP-Luc (NF54 background) parasite strain[44] was maintained at 1 to 10% parasitaemia in an RPMI 1640 culture medium supplemented with A+ erythrocytes (2% haematocrit), 10% decomplemented human serum, 9 mM (0.16%) glucose, 0.2 mM hypoxanthine, 2.1 mM L-glutamine, and 20 μg ml^−1 gentamicin. Parasite cultures were incubated at 37 °C in 5% O2, 5% CO2, and 90% N2. […] Following drug exposure, parasites were cultivated for two additional days in normal medium before centrifugation and freezing at −80 °C, and luciferase activity was measured.
Plates frozen at −80 °C were thawed at 37 °C. […] Luciferase activity was measured on a luminescence plate reader (Mithras LB940 luminometer, Berthold Technologies). The mean of the luciferase activity was calculated for each technical triplicate and normalized as follows: (Lucx−LucRBC)/(Lucsolvent−LucRBC) with Lucx and Lucsolvent=mean luciferase activity for parasites incubated with compound x and with solvent (DMSO for 1o and PBS for MB), respectively, and LucRBC=mean luciferase activity of non-infected red blood cells (background). […]

A further series can be described thus: plasma stability. Format: in vitro ADME. Particulars: for remaining at 3 h: plasma, read-out: Plasma Stability % remaining after 3 h. As for the experimental part: Pharmacokinetic data were obtained for compound 1o at the Sanford-Burnham Medical Research Institute according to established procedures. Compound solubility in an aqueous solution was measured using an automated kinetic solubility method. The concentration of the compound in a saturated pH-buffered aqueous solution was determined via UV absorbance (250–498 nm) and compared with the spectra of a precipitation-free reference solution. The plasma stability of the compound was determined at a single concentration using species-specific plasma. The percentage of parent compound remaining after 3 h was determined via LC-MS/MS. The percentage of compound 1o bound to plasma proteins was determined through rapid equilibrium dialysis and quantified via LC-MS/MS. Metabolic stability of the compound was determined at a single concentration using species-specific liver microsomes that contained cytochrome P450s, flavin-monooxygenases, carboxyl-esterases, epoxide hydrolases, and other drug-metabolizing enzymes. The quantification was carried out via LC-MS/MS. Membrane permeability of compound 1o was measured using an in vitro model for the passive transport from the gastrointestinal tract into the blood system. A double-sink parallel artificial membrane permeability assay PAMPA, in a 96-well format was employed.

Where two headings read alike, the source gives them in different places.

With `COc1ccc2c(c1)CCC1C2CC[C@@]2(C)C1CC[C@H]2NCc1cc2ccccc2cc1O` (stereo partly shown) [1o], in series [1], the 50% inhibitory concentration (IC50) came out at 3.1 ± 2.4 nM. In addition, the “relative survival of gametocytes” value in series [2] (concentrations >5 nM, all stages, 72 h exposure) is on record as “below 50%”. In addition, the “complete killing of gametocytes” value in series [2] (even at concentrations >1 μM) was “never detected complete killing of gametocytes”. Moreover, the figures for the “Plasma Stability % remaining after 3 h” value in the series “plasma stability” (Human) and in “plasma stability” (Mouse) were 62% and 58%, respectively. In addition, the fraction remaining at 3 h was found to be 62.5% in the series “plasma stability” (human) and 58.9% in “plasma stability” (mouse).

For orientation: IC50 means the point on the concentration scale where inhibition reaches its midpoint. By amount remaining is commonly meant what is left of the initial amount, in per cent.
